US7825253B2, “2-aminoquinoline derivatives” (Hoffmann-La Roche Inc., priority 2006, dated 2010)
pKi: −log10 of the molar value.

Molecular target: T1, recombinant human 5-HT5A receptor (Homo sapiens, UniProt P47898)
T1 construct: expressed in transfected cells; host or cells: Human Embryonic Kidney-EBNA (HEK-EBNA) cells, transient cDNA expression; membranes
Assay: [3H]LSD radioligand binding assay
Conditions: [3H]LSD approx. 1 nM; membranes from HEK-EBNA cells transiently expressing 5-HT5A; Ki from IC50 by Cheng-Prussoff
Experimental: A [^3H]LSD radioligand binding assay was used to determine the affinity of the compounds for the recombinant human 5-HT5A receptor, in membranes from transiently (cDNA) expressed 5-HT5A receptors in Human Embryonic Kidney-EBNA (HEK-EBNA) cells. Assay buffer consisted of Tris (50 mM) buffer containing 1 mM EGTA, 10 mM MgCl2 (pH 7.4) and 10 μM pargyline. The binding assay was carried out in 96-well-plates in the presence of [^3H]LSD (approximately 1 nM), approximately 2 μg/well of membrane protein, and 0.5 mg of Ysi-poly-l-lysine SPA beads in a final volume of 200 μl of buffer. Non-specific binding was defined using methiothepin 2 μM. Compounds were tested at 10 concentrations. All assays were conducted in duplicate and repeated at least two times. Assay plates were incubated for 120 min at room temperature before centrifugation. Bound ligand was determined using a Packard Topcount scintillation counter. IC50 values were calculated using a non-linear curve fitting program and Ki values calculated using the Cheng-Prussoff equation.

T1 sequence (P47898 whole entry): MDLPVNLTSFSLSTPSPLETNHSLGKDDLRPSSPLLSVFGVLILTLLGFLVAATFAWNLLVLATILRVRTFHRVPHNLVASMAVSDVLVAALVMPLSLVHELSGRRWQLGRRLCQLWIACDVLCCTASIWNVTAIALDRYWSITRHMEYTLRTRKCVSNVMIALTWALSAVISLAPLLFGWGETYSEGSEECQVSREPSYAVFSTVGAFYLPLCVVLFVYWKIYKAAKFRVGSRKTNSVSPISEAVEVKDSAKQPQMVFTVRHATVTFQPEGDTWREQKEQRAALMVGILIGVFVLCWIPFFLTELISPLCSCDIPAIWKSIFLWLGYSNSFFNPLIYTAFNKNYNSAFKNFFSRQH

SMILES	pKi
Cc1ccc(CNc2ccc3c(NS(=O)(=O)c4ccccc4)cccc3n2)o1 [Example 39, N-{2-[(5-Methyl-furan-2-ylmethyl)-amino]-quinolin-5-yl}-benzenesulfonamide]	7.54
Cc1ccc(CNc2ccc3c(Nc4ccc(Cl)cc4)cccc3n2)o1 [Example 51, N5-(4-Chloro-phenyl)-N2-(5-methyl-furan-2-ylmethyl)-quinoline-2,5-diamine]	8.04
Cc1ccc(CNc2ccc3c(CCc4ccccn4)cccc3n2)o1 [Example 54, (5-Methyl-furan-2-ylmethyl)-[5-(2-pyridin-2-yl-ethyl)-quinolin-2-yl]-amine]	7.35
Cc1ccc(CNc2ccc3c(Nc4ccc(Cl)nc4)cccc3n2)o1 [Example 57, N5-(6-Chloro-pyridin-3-yl)-N2-(5-methyl-furan-2-ylmethyl)-quinoline-2,5-diamine]	7.50
Cc1ccc(CNc2ccc3c(NS(=O)(=O)c4ccc(Cl)nc4)cccc3n2)o1 [Example 59, 6-Chloro-pyridine-3-sulfonic acid {2-[(5-methyl-furan-2-ylmethyl)-amino]-quinolin-5-yl}-amide]	7.70
Cc1ccc(CNc2ccc3c(NS(=O)(=O)c4cc(F)cc(F)c4)cccc3n2)o1 [Example 60, 3,5-Difluoro-N-{2-[(5-methyl-furan-2-ylmethyl)-amino]-quinolin-5-yl}-benzenesulfonamide]	7.66
Cc1ccc(CNc2ccc3c(NS(=O)(=O)c4cccc(F)c4)cccc3n2)o1 [Example 73, 3-Fluoro-N-{2-[(5-methyl-furan-2-ylmethyl)-amino]-quinolin-5-yl}-benzenesulfonamide]	7.67
Cc1ccc(CNc2ccc3c(NS(=O)(=O)c4ccc(F)c(F)c4)cccc3n2)o1 [Example 74, 3,4-Difluoro-N-{2-[(5-methyl-furan-2-ylmethyl)-amino]-quinolin-5-yl}-benzenesulfonamide]	7.89
O=S(=O)(Nc1cccc2nc(NCCOc3ccccc3)ccc12)c1cc(F)cc(F)c1 [Example 77, 3,5-Difluoro-N-[2-(2-phenoxy-ethylamino)-quinolin-5-yl]-benzenesulfonamide]	7.72
COc1ccccc1CNc1ccc2c(OCC[S+]([O-])c3ccccc3)cccc2n1 (stereo not shown) [Example 83, [5-(2-Benzenesulfinyl-ethoxy)-quinolin-2-yl]-(2-methoxy-benzyl)-amine]	7.02
COc1ccccc1CNc1ccc2c(OCCS(=O)(=O)c3ccccc3)cccc2n1 [Example 84, [5-(2-Benzenesulfonyl-ethoxy)-quinolin-2-yl]-(2-methoxy-benzyl)-amine]	7.05
Cc1ccc(CNc2ccc3c(NCc4cc[nH]n4)cccc3n2)o1 [Example 88, N2-(5-Methyl-furan-2-ylmethyl)-N5-(1H-pyrazol-3-ylmethyl)-quinoline-2,5-diamine]	7.48
Cc1cc2cccc(Nc3ccc4c(NS(=O)(=O)c5cc(F)cc(F)c5)cccc4n3)c2o1 [Example 89, 3,5-Difluoro-N-[2-(2-methyl-benzofuran-7-ylamino)-quinolin-5-yl]-benzenesulfonamide]	7.30
Cc1ccc(CNc2ccc3c(NCc4cccc5[nH]ccc45)cccc3n2)o1 [Example 91, N5-(1H-Indol-4-ylmethyl)-N2-(5-methyl-furan-2-ylmethyl)-quinoline-2,5-diamine]	8.28
Cc1ccc(CNc2ccc3c(NCc4nc[nH]c4C)cccc3n2)o1 [Example 92, N2-(5-Methyl-furan-2-ylmethyl)-N5-(5-methyl-1H-imidazol-4-ylmethyl)-quinoline-2,5-diamine]	7.84
Cc1ccc(CNc2ccc3c(Nc4cccc5cc[nH]c45)cccc3n2)o1 [Example 93, N5-(1H-Indol-7-yl)-N2-(5-methyl-furan-2-ylmethyl)-quinoline-2,5-diamine]	7.55
Cc1ccc(CNc2ccc3c(Nc4cccc5[nH]ccc45)cccc3n2)o1 [Example 94, N5-(1H-Indol-4-yl)-N2-(5-methyl-furan-2-ylmethyl)-quinoline-2,5-diamine]	7.97
COc1ccccc1CNc1ccc2c(NCc3[nH]cnc3C)cccc2n1 [Example 96, N2-(2-Methoxy-benzyl)-N5-(5-methyl-3H-imidazol-4-ylmethyl)-quinoline-2,5-diamine]	7.71
COc1ccccc1CNc1ccc2c(NCc3cnc(C)[nH]3)cccc2n1 [Example 97, N2-(2-Methoxy-benzyl)-N5-(2-methyl-3H-imidazol-4-ylmethyl)-quinoline-2,5-diamine]	7.51
Cc1ccc(CNc2ccc3c(NCc4nccs4)cccc3n2)o1 [Example 100, N2-(5-Methyl-furan-2-ylmethyl)-N5-thiazol-2-ylmethyl-quinoline-2,5-diamine]	7.64
Cc1ccc(CNc2ccc3c(NCc4cccc5c4OCO5)cccc3n2)o1 [Example 103, N5-Benzo[1,3]dioxol-4-ylmethyl-N2-(5-methyl-furan-2-ylmethyl)-quinoline-2,5-diamine]	8.18
Cc1ccc(CNc2ccc3c(NCc4ccccc4N4CCN(C)CC4)cccc3n2)o1 [Example 105, N2-(5-Methyl-furan-2-ylmethyl)-N5-[2-(4-methyl-piperazin-1-yl)-benzyl]-quinoline-2,5-diamine]	7.62
Cc1ccc(CNc2ccc3c(NCc4ccc5[nH]cnc5c4)cccc3n2)o1 [Example 107, N5-(1H-Benzoimidazol-5-ylmethyl)-N2-(5-methyl-furan-2-ylmethyl)-quinoline-2,5-diamine]	8.41
O=S(=O)(Nc1cccc2nc(NCc3ccccc3OC(F)(F)F)ccc12)c1ccc(F)cc1 [Example 108, 4-Fluoro-N-[2-(2-trifluoromethoxy-benzylamino)-quinolin-5-yl]-benzenesulfonamide]	7.30
COc1cccc(OC)c1CNc1ccc2c(NCc3cccc4[nH]ccc34)cccc2n1 [Example 109, N2-(2,6-Dimethoxy-benzyl)-N5-(1H-indol-4-ylmethyl)-quinoline-2,5-diamine]	7.01
COc1ccccc1CNc1ccc2c(NCc3nccs3)cccc2n1 [Example 110, N2-(2-Methoxy-benzyl)-N5-thiazol-2-ylmethyl-quinoline-2,5-diamine]	7.78

Continued, values first:

pKi	SMILES
7.90	Cc1ccc(CNc2ccc3c(NS(=O)(=O)c4ccc(F)cc4)cccc3n2)o1 [Example 42, N-{2-[(5-Methyl-furan-2-ylmethyl)-amino]-quinolin-5-yl}-4-fluorobenzenesulfonamide]
7.88	Cc1ccc(CNc2ccc3c(Nc4ccc(F)cc4)cccc3n2)o1 [Example 45, N5-(4-Fluoro-phenyl)-N2-(5-methyl-furan-2-ylmethyl)-quinoline-2,5-diamine]
7.47	Cc1ccc(CNc2ccc3c(SCc4ccccc4)cccc3n2)o1 [Example 46, (5-Benzylsulfanyl-quinolin-2-yl)-(5-methyl-furan-2-ylmethyl)-amine]
8.12	Cc1ccc(CNc2ccc3c(NS(=O)(=O)c4ccc(Cl)s4)cccc3n2)o1 [Example 58, 5-Chloro-thiophene-2-sulfonic acid {2-[(5-methyl-furan-2-ylmethyl)-amino]-quinolin-5-yl}-amide]
7.72	COc1ccccc1CNc1ccc2c(NS(=O)(=O)c3ccc(F)cc3)cccc2n1 [Example 61, 4-Fluoro-N-[2-(2-methoxy-benzylamino)-quinolin-5-yl]-benzenesulfonamide]
7.47	CSc1ccccc1CNc1ccc2c(NS(=O)(=O)c3ccc(F)cc3)cccc2n1 [Example 82, 4-Fluoro-N-[2-(2-methylsulfanyl-benzylamino)-quinolin-5-yl]-benzenesulfonamide]
7.78	Cc1ccc(CNc2ccc3c(NS(=O)(=O)c4cc(F)cc(F)c4)cccc3n2)s1 [Example 85, 3,5-Difluoro-N-{2-[(5-methyl-thiophen-2-ylmethyl)-amino]-quinolin-5-yl}-benzenesulfonamide]
7.80	Cc1ccc(CNc2ccc3c(NCc4c[nH]cn4)cccc3n2)o1 [Example 87, N5-(1H-Imidazol-4-ylmethyl)-N2-(5-methyl-furan-2-ylmethyl)-quinoline-2,5-diamine]
7.28	Cc1nc(CNc2cccc3nc(NCc4ccc(C)o4)ccc23)c[nH]1 [Example 90, N2-(5-Methyl-furan-2-ylmethyl)-N5-(2-methyl-1H-imidazol-4-ylmethyl)-quinoline-2,5-diamine]
7.48	COc1ccccc1CNc1ccc2c(NCc3cc[nH]n3)cccc2n1 [Example 98, N2-(2-Methoxy-benzyl)-N5-(1H-pyrazol-3-ylmethyl)-quinoline-2,5-diamine]
7.07	COc1cccc(OC)c1CNc1ccc2c(NCc3cccnc3)cccc2n1 [Example 99, N2-(2,6-Dimethoxy-benzyl)-N5-pyridin-3-ylmethyl-quinoline-2,5-diamine]
7.84	COc1ccccc1CNc1ccc2c(NCc3cnc[nH]3)cccc2n1 [Example 101, N5-(3H-Imidazol-4-ylmethyl)-N2-(2-methoxy-benzyl)-quinoline-2,5-diamine]
8.19	COc1ccccc1CNc1ccc2c(NCc3cccc4[nH]ccc34)cccc2n1 [Example 102, N5-(1H-Indol-4-ylmethyl)-N2-(2-methoxy-benzyl)-quinoline-2,5-diamine]
7.52	COc1ccccc1CNc1ccc2c(NCc3c[nH]nn3)cccc2n1 [Example 106, N2-(2-Methoxy-benzyl)-N5-(1H-[1,2,3]triazol-4-ylmethyl)-quinoline-2,5-diamine]
